According to ChEMBL document CHEMBL6083275, “Discovery and evaluation of HW161023 as a potent and orally active AAK1 inhibitor” (Bioorg Med Chem Lett, 2024):
pIC50: −log10 of the molar value. Values belong to the compound of their own block, whether it stands above or below them.

Assays:
[1] = biological target: AP2-associated protein kinase 1 (Homo sapiens, UniProt Q2M2I8); assay: Inhibition of AAK1 (unknown origin)
[2] = biological target: MAP kinase-interacting serine/threonine-protein kinase 2 (Homo sapiens) (UniProt Q9HBH9); assay: Inhibition of wildtype MNK2 (unknown origin) at 1 uM relative to control
[3] = Apparent volume of distribution in dog at 1 mg/kg, iv; assay type: ADME, organism-based, Canis lupus familiaris; settings: in vivo, read-out: Vz
[4] = biological target: T1, Cyclin-G-associated kinase (Homo sapiens) (UniProt O14976); assay: Inhibition of wildtype GAK (unknown origin) at 1 uM relative to control
T1 sequence (whole entry): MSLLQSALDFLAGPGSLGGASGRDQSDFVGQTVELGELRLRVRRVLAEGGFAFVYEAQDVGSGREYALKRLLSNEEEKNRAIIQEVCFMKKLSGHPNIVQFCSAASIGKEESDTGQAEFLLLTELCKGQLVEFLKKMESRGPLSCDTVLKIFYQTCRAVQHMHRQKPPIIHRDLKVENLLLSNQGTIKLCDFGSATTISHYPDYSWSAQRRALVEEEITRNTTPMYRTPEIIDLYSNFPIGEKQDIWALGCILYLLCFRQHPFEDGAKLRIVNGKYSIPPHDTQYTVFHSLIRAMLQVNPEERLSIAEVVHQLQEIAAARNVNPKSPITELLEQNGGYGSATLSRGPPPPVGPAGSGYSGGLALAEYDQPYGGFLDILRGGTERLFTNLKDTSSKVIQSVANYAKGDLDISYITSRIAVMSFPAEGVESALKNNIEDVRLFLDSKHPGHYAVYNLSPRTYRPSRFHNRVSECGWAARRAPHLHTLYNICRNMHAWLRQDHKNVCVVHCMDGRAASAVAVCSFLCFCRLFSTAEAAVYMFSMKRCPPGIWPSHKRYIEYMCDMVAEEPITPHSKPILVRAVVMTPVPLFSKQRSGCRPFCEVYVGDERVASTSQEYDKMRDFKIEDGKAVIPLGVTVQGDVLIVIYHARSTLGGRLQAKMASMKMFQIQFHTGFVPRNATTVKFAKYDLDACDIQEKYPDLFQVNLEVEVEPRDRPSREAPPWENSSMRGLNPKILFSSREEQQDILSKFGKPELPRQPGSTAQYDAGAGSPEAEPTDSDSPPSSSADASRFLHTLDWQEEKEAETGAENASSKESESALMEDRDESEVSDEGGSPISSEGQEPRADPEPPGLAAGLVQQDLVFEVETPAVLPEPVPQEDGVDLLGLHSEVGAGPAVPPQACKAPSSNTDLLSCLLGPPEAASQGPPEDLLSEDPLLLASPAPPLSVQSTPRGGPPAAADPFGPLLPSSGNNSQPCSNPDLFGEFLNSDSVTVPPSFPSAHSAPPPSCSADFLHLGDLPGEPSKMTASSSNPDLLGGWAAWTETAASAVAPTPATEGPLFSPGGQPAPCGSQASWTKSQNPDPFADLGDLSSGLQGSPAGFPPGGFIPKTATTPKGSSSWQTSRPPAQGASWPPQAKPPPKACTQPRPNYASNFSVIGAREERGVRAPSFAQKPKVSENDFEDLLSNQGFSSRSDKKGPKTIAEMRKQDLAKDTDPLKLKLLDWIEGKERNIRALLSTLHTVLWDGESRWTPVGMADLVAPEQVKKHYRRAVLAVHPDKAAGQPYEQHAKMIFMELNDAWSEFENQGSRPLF

[5] = Protein binding in human plasma assessed as unbound fraction; assay type: ADME, cell-free
[6] = Half-life in C57BL/6J mouse at 1 mg/kg, iv; assay type: ADME, organism-based; settings: in vivo
[7] = Clearance in rat at 1 mg/kg, iv; assay type: ADME, organism-based; settings: in vivo
[8] = Oral bioavailability in C57BL/6J mouse at 10 mg/kg; assay type: ADME, organism-based; settings: in vivo
[9] = AUC (0 to 24 hrs) in dog at 5 mg/kg, po; assay type: ADME, organism-based, Canis lupus familiaris; settings: in vivo
[10] = biological target: MAP kinase-interacting serine/threonine-protein kinase 1 (Homo sapiens) (UniProt Q9BUB5); assay: Inhibition of wildtype MNK1 (unknown origin) at 1 uM relative to control
Chain of MAP kinase-interacting serine/threonine-protein kinase 1 (Homo sapiens) (Q9BUB5 whole entry, looked up): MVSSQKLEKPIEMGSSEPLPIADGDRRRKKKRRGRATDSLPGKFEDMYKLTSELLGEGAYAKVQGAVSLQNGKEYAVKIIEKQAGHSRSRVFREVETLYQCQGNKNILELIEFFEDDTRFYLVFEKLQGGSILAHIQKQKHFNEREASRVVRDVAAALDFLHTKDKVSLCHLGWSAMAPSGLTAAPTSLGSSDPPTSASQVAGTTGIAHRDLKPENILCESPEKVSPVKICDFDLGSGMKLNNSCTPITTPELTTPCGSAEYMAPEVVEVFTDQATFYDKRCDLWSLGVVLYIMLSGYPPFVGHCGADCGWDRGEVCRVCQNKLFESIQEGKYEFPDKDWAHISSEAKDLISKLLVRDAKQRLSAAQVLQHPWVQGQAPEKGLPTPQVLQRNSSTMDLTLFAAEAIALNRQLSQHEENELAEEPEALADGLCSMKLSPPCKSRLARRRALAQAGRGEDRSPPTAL

[11] = Metabolic stability in mouse liver microsomes assessed as half-life; assay type: ADME, Microsome
[12] = Metabolic stability in rat liver microsomes assessed as half-life; assay type: ADME, Microsome
[13] = Tmax in C57BL/6J mouse at 10 mg/kg, po; assay type: ADME, organism-based; settings: in vivo
[14] = Apparent volume of distribution in rat at 1 mg/kg, iv; assay type: ADME, organism-based; settings: in vivo, read-out: Vz
[15] = Clearance in C57BL/6J mouse at 1 mg/kg, iv; assay type: ADME, organism-based; settings: in vivo
[16] = Metabolic stability in human liver microsomes assessed as half-life; assay type: ADME, Microsome
[17] = Protein binding in mouse plasma assessed as unbound fraction; assay type: ADME, cell-free
[18] = biological target: T2, cGMP-dependent protein kinase 2 (Homo sapiens) (UniProt Q13237); assay: Inhibition of wildtype CGK2 (unknown origin) at 1 uM relative to control
T2 sequence (whole entry): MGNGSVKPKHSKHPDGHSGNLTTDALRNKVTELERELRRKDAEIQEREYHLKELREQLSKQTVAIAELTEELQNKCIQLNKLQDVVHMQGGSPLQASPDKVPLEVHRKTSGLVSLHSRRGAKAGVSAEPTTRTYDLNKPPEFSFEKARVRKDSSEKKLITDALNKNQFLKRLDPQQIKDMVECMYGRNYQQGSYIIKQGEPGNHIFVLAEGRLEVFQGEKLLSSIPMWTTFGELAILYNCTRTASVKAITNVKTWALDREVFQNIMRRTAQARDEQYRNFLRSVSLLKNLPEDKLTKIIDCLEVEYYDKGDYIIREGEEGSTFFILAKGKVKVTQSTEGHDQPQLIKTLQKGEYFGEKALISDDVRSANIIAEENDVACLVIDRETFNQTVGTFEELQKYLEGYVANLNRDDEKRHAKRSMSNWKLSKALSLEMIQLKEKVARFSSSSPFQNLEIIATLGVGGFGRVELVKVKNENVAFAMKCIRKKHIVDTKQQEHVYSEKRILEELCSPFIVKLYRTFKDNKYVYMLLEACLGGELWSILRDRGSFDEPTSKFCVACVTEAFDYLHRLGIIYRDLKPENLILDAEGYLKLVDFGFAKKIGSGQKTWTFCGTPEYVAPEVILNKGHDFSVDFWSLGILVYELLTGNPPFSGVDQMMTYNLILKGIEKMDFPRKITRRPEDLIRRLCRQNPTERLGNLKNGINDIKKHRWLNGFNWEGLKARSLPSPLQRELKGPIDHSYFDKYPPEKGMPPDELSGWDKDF

[19] = Oral bioavailability in dog at 5 mg/kg; assay type: ADME, organism-based, Canis lupus familiaris; settings: in vivo
[20] = Apparent volume of distribution in C57BL/6J mouse at 1 mg/kg, iv; assay type: ADME, organism-based; settings: in vivo, read-out: Vz
CYP2D6 = CYP2D6 (Homo sapiens, UniProt P10635); assay: Inhibition of CYP2D6 (unknown origin) at 10 uM relative to control; assay type: ADME
Chain of CYP2D6 (P10635 whole entry): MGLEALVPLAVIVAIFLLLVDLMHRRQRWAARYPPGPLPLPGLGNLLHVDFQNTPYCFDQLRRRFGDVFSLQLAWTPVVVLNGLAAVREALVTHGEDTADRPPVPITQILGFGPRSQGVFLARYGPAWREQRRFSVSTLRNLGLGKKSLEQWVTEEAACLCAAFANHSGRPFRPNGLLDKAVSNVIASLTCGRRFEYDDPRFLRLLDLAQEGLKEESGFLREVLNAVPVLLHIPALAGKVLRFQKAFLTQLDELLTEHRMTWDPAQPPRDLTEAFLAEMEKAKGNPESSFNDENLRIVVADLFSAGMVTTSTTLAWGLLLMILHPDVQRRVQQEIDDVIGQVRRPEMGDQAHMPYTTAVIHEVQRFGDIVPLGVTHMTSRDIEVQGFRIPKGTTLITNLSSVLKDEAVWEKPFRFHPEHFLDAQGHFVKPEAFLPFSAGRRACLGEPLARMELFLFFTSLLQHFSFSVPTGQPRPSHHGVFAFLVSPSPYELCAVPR

[21] = Protein binding in rat plasma assessed as unbound fraction; assay type: ADME, cell-free
[22] = AUC (0 to 24 hrs) in rat at 10 mg/kg, po; assay type: ADME, organism-based; settings: in vivo
[23] = Metabolic stability in dog liver microsomes assessed as half-life; assay type: ADME, Canis lupus familiaris, Microsome
Rattus norvegicus = assay: Analgesic activity in sciatic nerved CCI-induced neuropathic pain rat model assessed as reduction in mechanical hyperalgesia at 10 mg/kg, po administered from day 14 post CCI-surgery and measured after 3.5 to 5.5 hrs by Von Frey test; assay type: functional, organism-based; settings: time 3.5-5.5 hrs
[24] = Protein binding in dog plasma assessed as unbound fraction; assay type: ADME, cell-free, Canis lupus familiaris
[25] = biological target: Voltage-gated inwardly rectifying potassium channel KCNH2 (Homo sapiens, UniProt Q12809); assay: Inhibition of human ERG by patch clamp assay; assay type: toxicity
[26] = Half-life in rat at 1 mg/kg, iv; assay type: ADME, organism-based; settings: in vivo
CYP3A4 [27] = biological target: T3, CYP3A4 (Homo sapiens, UniProt P08684); assay: Inhibition of CYP3A4 (unknown origin) using testosterone as substrate at 10 uM relative to control; assay type: ADME; settings: probe testosterone
T3 sequence (P08684 whole entry): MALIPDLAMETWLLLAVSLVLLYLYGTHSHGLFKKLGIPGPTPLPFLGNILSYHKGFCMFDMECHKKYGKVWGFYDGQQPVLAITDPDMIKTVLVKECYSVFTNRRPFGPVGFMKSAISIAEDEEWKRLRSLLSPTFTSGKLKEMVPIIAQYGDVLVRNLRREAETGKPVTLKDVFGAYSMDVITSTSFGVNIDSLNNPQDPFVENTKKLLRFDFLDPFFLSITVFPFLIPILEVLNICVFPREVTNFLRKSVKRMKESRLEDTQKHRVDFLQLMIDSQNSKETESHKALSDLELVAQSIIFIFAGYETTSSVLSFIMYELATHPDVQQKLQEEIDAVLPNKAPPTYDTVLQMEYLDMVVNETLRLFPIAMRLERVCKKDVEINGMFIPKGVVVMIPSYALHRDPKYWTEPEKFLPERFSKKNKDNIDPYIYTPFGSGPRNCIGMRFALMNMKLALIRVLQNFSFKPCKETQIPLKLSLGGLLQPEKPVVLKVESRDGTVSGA

CYP3A4 [28] = biological target: T3, CYP3A4; assay: Inhibition of CYP3A4 (unknown origin) using midazolam as substrate at 10 uM relative to control; assay type: ADME; settings: probe midazolam
[29] = Clearance in dog at 1 mg/kg, iv; assay type: ADME, organism-based, Canis lupus familiaris; settings: in vivo
[30] = biological target: Citron Rho-interacting kinase (Homo sapiens) (UniProt O14578); assay: Inhibition of wildtype CRIK (unknown origin) at 1 uM relative to control
Chain of Citron Rho-interacting kinase (Homo sapiens) (O14578 whole entry): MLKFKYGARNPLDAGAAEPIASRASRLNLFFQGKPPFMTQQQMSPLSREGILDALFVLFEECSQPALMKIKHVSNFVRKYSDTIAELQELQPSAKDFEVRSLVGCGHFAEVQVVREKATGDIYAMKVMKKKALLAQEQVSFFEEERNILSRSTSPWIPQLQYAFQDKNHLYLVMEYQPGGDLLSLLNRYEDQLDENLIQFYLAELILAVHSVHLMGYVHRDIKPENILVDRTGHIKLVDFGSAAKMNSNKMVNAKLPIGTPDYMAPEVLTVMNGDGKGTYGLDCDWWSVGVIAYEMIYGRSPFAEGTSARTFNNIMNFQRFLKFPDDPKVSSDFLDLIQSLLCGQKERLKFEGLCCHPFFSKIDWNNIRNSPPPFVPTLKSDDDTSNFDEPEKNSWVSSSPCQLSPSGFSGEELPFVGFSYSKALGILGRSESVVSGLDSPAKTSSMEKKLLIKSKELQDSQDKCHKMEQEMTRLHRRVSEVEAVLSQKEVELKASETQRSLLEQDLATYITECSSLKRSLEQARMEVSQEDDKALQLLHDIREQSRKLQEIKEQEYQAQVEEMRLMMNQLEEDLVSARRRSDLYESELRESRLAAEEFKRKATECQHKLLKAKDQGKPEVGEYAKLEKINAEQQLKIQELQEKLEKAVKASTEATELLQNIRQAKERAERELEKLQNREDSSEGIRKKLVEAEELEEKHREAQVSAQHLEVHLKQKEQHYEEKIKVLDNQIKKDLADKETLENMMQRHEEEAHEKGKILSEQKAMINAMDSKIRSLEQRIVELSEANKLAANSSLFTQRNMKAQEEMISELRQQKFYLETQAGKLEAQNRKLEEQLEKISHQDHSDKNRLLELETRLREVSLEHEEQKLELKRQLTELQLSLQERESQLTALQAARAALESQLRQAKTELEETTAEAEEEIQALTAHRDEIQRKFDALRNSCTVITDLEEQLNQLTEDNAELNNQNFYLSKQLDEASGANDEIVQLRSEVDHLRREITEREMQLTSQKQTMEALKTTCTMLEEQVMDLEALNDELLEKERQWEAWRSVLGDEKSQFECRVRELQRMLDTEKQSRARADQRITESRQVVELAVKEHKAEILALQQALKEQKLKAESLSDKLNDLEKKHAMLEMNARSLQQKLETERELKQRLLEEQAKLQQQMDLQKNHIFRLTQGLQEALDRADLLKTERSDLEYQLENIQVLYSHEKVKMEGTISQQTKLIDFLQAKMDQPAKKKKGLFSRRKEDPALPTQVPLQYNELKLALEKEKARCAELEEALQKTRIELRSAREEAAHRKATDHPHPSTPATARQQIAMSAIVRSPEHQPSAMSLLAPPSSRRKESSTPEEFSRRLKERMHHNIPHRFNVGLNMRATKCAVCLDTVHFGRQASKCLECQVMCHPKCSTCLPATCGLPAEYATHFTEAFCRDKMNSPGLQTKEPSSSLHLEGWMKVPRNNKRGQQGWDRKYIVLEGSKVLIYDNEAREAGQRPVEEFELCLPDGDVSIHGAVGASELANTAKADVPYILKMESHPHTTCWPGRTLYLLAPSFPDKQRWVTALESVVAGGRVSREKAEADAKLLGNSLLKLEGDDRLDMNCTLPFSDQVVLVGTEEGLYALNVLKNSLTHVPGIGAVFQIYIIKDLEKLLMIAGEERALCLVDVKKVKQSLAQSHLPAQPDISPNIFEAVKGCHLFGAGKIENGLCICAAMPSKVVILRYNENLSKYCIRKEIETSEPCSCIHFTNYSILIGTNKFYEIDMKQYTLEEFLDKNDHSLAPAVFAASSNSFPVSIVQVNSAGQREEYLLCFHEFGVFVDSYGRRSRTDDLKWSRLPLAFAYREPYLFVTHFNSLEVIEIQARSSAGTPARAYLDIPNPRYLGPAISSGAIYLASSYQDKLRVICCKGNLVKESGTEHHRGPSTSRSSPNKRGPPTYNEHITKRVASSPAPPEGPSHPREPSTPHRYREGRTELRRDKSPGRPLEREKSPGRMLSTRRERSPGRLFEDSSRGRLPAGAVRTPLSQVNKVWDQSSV

[31] = Tmax in rat at 10 mg/kg, po; assay type: ADME, organism-based; settings: in vivo
[32] = Metabolic stability in hepatocytes (unknown origin) assessed as half-life; assay type: ADME, cell-based, Hepatocyte
[33] = Half-life in dog at 1 mg/kg, iv; assay type: ADME, organism-based, Canis lupus familiaris; settings: in vivo
[34] = Tmax in dog at 5 mg/kg, po; assay type: ADME, organism-based, Canis lupus familiaris; settings: in vivo
[35] = biological target: BMP-2-inducible protein kinase (Homo sapiens) (UniProt Q9NSY1); assay: Inhibition of wildtype BIKE (unknown origin) at 1 uM relative to control
CYP2C9 = CYP2C9 (Homo sapiens, UniProt P11712); assay: Inhibition of CYP2C9 (unknown origin) at 10 uM relative to control; assay type: ADME
Chain of CYP2C9 (P11712 whole entry): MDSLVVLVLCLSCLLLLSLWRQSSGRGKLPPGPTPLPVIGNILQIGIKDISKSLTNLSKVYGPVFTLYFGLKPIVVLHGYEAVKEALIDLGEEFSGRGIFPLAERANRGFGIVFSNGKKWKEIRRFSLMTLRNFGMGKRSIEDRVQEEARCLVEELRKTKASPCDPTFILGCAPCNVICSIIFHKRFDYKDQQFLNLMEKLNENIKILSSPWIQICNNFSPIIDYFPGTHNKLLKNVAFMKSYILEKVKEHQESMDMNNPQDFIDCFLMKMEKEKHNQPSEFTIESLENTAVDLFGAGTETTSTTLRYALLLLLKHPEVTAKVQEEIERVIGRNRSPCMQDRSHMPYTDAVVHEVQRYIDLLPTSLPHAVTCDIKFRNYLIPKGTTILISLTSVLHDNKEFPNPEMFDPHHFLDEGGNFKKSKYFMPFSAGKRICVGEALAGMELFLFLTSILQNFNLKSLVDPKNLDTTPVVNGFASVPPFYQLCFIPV

[36] = Oral bioavailability in rat at 10 mg/kg; assay type: ADME, organism-based; settings: in vivo
[37] = Cytotoxicity against human HepG2 cells; assay type: toxicity, cell-based
[38] = AUC (0 to 24 hrs) in C57BL/6J mouse at 10 mg/kg, po; assay type: ADME, organism-based; settings: in vivo

Chain of AP2-associated protein kinase 1 (Q2M2I8 whole entry): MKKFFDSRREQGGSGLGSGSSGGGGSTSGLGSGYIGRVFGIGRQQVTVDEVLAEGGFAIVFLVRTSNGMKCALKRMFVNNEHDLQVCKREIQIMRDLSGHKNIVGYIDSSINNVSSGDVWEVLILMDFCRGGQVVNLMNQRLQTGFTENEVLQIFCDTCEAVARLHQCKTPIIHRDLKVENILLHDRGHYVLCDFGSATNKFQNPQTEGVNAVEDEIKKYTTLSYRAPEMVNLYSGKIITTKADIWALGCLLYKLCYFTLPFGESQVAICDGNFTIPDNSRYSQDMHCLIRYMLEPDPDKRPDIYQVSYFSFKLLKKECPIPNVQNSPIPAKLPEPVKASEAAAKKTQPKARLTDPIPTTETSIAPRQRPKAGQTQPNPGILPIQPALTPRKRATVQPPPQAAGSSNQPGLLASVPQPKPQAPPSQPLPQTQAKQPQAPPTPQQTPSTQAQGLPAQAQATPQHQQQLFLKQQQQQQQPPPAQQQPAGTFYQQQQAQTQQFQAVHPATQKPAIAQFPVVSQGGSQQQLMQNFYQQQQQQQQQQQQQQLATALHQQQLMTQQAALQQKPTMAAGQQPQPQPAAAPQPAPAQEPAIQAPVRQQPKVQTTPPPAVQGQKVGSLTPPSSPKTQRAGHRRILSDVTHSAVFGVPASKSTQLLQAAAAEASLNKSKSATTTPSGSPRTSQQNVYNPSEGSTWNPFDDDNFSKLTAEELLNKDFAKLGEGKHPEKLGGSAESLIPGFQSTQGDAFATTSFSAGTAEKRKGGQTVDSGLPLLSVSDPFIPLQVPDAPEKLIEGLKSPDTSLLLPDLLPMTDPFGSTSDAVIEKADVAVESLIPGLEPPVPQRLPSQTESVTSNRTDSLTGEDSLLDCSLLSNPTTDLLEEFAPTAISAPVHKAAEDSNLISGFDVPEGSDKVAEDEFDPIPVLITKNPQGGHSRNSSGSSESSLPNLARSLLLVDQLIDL

- pIC50 [1]: < 7.70
Structure (SMILES): Cc1cn2c(OC[C@@](C)(N)CC(C)C)ccc(-c3ccnc(C(F)F)c3)c2n1

- pIC50 [1]: < 7.70
Structure (SMILES): CC(C)C[C@](C)(N)COc1ccc(-c2ccnc(C(F)F)c2)c2nncn12

- pIC50 [1]: < 7.30
Structure (SMILES): CC(C)C[C@](C)(N)COc1ccc(-c2ccnc(C(F)F)c2)c2cnccc12

- inhibition [2]: 88%
- Vd [3]: 14 L/kg
- inhibition [4]: 97%
- fraction unbound [5]: 0.193
- half-life [6]: 17 h
- clearance [7]: 31.7 mL/min/kg
- bioavailability [8]: 103%
- AUC(0-t) [9]: 2270 ng·h/mL
- inhibition [10]: 91%
- half-life [11]: 0.717 h
- half-life [12]: 0.583 h
- Tmax [13]: 1.2 h
- Vd [14]: 25 L/kg
- clearance [15]: 11.7 mL/min/kg
- half-life [16]: 1.47 h
- fraction unbound [17]: 0.128
- inhibition [18]: 65%
- bioavailability [19]: 140%
- Vd [20]: 18 L/kg
- inhibition at 10 µM (CYP2D6): < 20%
- fraction unbound [21]: 0.185
- AUC(0-t) [22]: 4640 ng·h/mL
- half-life [23]: 3.07 h
- fraction unbound [24]: 0.129
- half-life [26]: 10.3 h
- inhibition at 10 µM (CYP3A4 [27]): < 20%
- inhibition at 10 µM (CYP3A4 [28]): < 20%
- clearance [29]: 48.3 mL/min/kg
- inhibition [30]: 60%
- Tmax [31]: 5.3 h
- half-life [32]: 46.4 h
- half-life [33]: 3.3 h
- Tmax [34]: 1 h
- inhibition [35]: 39%
- inhibition at 10 µM (CYP2C9): < 20%
- bioavailability [36]: 118%
- AUC(0-t) [38]: 9150 ng·h/mL
Structure (SMILES): CC(C)C[C@](C)(N)COc1ccc(-c2ccnc(C(F)F)c2)c2nccn12
- Activity (Rattus norvegicus): Active; Compound Exhibited Comparable Efficacy To Lx9211
- pIC50 [25]: 4.93
- pIC50 [37]: 4.29

- pIC50 [1]: < 7.70
Structure (SMILES): CC(C)C[C@](C)(N)COc1ccc(-c2ccnc(C(F)F)c2)n2cnnc12
